In US7202254B2, “Antibacterial compounds: process for their preparation and pharmaceutical compositions containing them” (Dr. Reddy's Laboratories Limited, priority 2002, dated 2007) one finds melting point data, which are given here for 14 molecules.

`CC(=O)NCc1cn(-c2ccc(N3CCS(=O)(=O)CC3)c(F)c2)nn1` [Example 49, N-{1-[4-(1,1-Dioxo-1lambda*6*-thiomorpholin-4-yl)-3-fluoro-phenyl]H-triazol-4-ylmethyl}-acetamide] had a melting point of 198 °C. To `O=C(NC(=S)NCc1cn(-c2ccc(N3CCOCC3)c(F)c2)nn1)c1ccccc1` [Example 70, 1-Benzoyl-3-[1-(3-fluoro-4-morpholin-4-yl-phenyl)-1H-[1,2,3]triazol-4-ylmethyl]-thiourea] belongs 138 °C; to `O=C(NCc1cn(-c2ccc(N3CCSCC3)c(F)c2)nn1)c1ccccn1` [Example 75, N-{1-[3-Fluoro-4-(4-thiomorpholinyl)phenyl]-1H-1,2,3-triazol-4-ylmethyl}-pyridine-2-carboxamide], 190 to 192 °C. To `COC(=S)NCc1cn(-c2ccc(N3CCS(=N)CC3)c(F)c2)nn1` [Example 63, {1-[3-Fluoro-4-(1-imino-1lambda*4*-thiomorpholin-4-yl)-phenyl]-1H-[1,2,3]triazol-4-ylmethyl}-thiocarbamic acid O-methyl ester] belongs 198 °C; to `COC(=S)NCc1cn(-c2ccc(N3CCC(=NO)CC3)c(F)c2)nn1` [Example 83, {1-[3-Fluoro-4-(4-hydroxyimino-piperidin-1-yl)-phenyl]-1H-[1,2,3]triazol-4-ylmethyl}-thiocarbamic acid O-methyl ester], 141 to 142 °C. Regarding `CC(=O)NCc1cn(-c2cc(F)c(N3CCS(=O)(=O)CC3)c(F)c2)nn1` [Example 45, N-{1-[4-(1,1-Dioxo-1lambda*6*-thiomorpholin-4-yl)-3,5-difluoro-phenyl]-1H-[1,2,3]triazol-4-ylmethyl}-acetamide], the melting point came out at 197 °C. To `CCNC(=S)NCc1cn(-c2ccc(N3CC[S+]([O-])CC3)c(F)c2)nn1` [Example 65, 1-Ethyl-3-{1-[3-fluoro-4-(1-oxo-1lambda*4*-thiomorpholin-4-yl)-phenyl]-1H-[2,3]triazol-4-ylmethyl}-thiourea] belongs 204 °C; to `CNC(=S)NCc1cn(-c2cc(F)c(N3CCOCC3)c(F)c2)nn1` [Example 64, 1-[1-(3,5-Difluoro-4-morpholin-4-yl-phenyl)-1H-[1,2,3]triazol-4-ylmethyl]-3-methyl-thiourea], 181 °C; to `Fc1cc(-n2cc(CNC(=S)c3ccccn3)nn2)ccc1N1CCSCC1` [Example 81, N-{1-[3-fluoro-4-(−4-thiomorpholinyl)phenyl]-1H-1,2,3-triazol-4-ylmethyl}-pyridine-2-thiocarboxamide], 158 to 160 °C.

`NC(=S)NCc1cn(-c2ccc(N3CCOCC3)c(F)c2)nn1` [Example 76, [1-(3-Fluoro-4-morpholin-4-yl-phenyl)-1H-[1,2,3]triazol-4-ylmethyl]-thiourea]: the melting point was found to be 192 °C. The molecule `COC(=S)NCc1cn(-c2ccc(N3CCC4(CC3)OCCO4)c(F)c2)nn1` [Example 62, {1-[4-(1,4-Dioxa-8-aza-spiro[4.5]dec-8-yl)-3-fluoro-phenyl]-1H-[1,2,3]triazol-4-ylmethyl}-thiocarbamic acid O-methyl ester] displayed a melting point of 135 to 137 °C. The molecule `COC(=S)NCc1cn(-c2cc(F)c(N3CCC(=O)CC3)c(F)c2)nn1` [Example 85, {1-[3,5-Difluoro-4-(4-oxo-piperidin-1-yl)-phenyl]-1H-[1,2,3]triazol-4-ylmethyl}thiocarbamic acid O-methyl ester] registered a melting point of 175 to 176 °C. Next, `CC(=O)NCc1cn(-c2ccc(N3CCOCC3)c(F)c2)nn1` [Example 42, N-[1-(3-Fluoro-4-morpholin-4-yl-phenyl)-1H-[1,2,3]triazol-4-ylmethyl]-acetamide]: 218 °C. Molecule `CC(=O)NCc1cn(-c2ccc(N3CCSCC3)c(F)c2)nn1` [Example 46, N-[1-(3-Fluoro-4-thiomorpholin-4-yl-phenyl)-1H-[1,2,3]triazol-4-ylmethyl]-acetamide] gave a melting point of 207 °C.
